Measurements from patent publication US9796700B2 (Celgene CAR LLC, priority 2013, dated 2017).

target: Erk1 (Homo sapiens (Human), UniProt P27361); assay: Protein Mass Modification Assay (intact protein MALDI); type: binding
Outline: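 Percent covalent modification comes from the intact-protein MALDI centroid mass shift, treated versus control, divided by compound MW. Before analysis, human Erk1 was exposed to compound at 10-fold excess over protein for 60 min at room temperature.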

Erk1, sequence (P27361 whole entry, looked up): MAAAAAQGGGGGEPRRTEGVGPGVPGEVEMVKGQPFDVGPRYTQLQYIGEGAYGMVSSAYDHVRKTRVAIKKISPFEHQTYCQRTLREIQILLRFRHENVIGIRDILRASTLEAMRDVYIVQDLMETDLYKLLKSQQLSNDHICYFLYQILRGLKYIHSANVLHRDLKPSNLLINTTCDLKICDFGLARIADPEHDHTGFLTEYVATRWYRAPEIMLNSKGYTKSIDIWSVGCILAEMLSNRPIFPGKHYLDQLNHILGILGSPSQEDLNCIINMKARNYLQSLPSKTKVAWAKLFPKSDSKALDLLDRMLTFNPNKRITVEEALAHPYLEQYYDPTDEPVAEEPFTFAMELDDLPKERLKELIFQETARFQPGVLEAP

Row | SMILES | ERK1 Mass Mod (%)
1 | C=CC(=O)Nc1ccccc1Oc1nc(Nc2ccc(N3CCC[C@@H]3CO)cc2OC)ncc1C(N)=O [Compound I-263, (R)-4-(2-acrylamidophenoxy)-2-((4-(2-(hydroxymethyl)pyrrolidin-1-yl)-2-methoxyphenyl)amino)pyrimidine-5-carboxamide] | E (provided a mass modification of ≧70%)
2 | C=CC(=O)Nc1ccccc1Oc1nc(Nc2ccc(N3CCC[C@@H]3C(N)=O)cc2OC)ncc1C(N)=O [Compound I-266, (R)-4-(2-acrylamidophenoxy)-2-((4-(2-carbamoylpyrrolidin-1-yl)-2-methoxyphenyl)amino)pyrimidine-5-carboxamide] | E (provided a mass modification of ≧70%)
3 | C=CC(=O)Nc1ccccc1Oc1nc(NC(C)(C)C)ncc1C(N)=O [Compound I-267, 4-(2-acrylamidophenoxy)-2-(tert-butylamino)pyrimidine-5-carboxamide] | E (provided a mass modification of ≧70%)
4 | C=CC(=O)Nc1ccccc1Nc1nc(Nc2ccc(N3CCOCC3)cc2OC)ncc1C(C)=O [Compound I-273, N-(2-(5-acetyl-2-(2-methoxy-4-morpholinophenylamino)pyrimidin-4-ylamino)phenyl) acrylamide] | G (proived a mass modification ≦30%)
5 | C=CC(=O)Nc1cc(C)ccc1Nc1nc(Nc2cc(NCCOC)nc(OC)c2)ncc1C(F)(F)F [Compound I-294, N-(2-((2-((2-methoxy-6-((2-methoxyethyl)amino)pyridin-4-yl)amino)-5-(trifluoromethyl)pyrimidin-4-yl)amino)-5-methylphenyl)acrylamide] | E (key: E: provided a mass modification of ≧70%; F: provided a mass modification of 31-69%; G: proived a mass modification ≦30%)
6 | C=CC(=O)Nc1ccccc1Nc1nc(Nc2cc(C(N)=O)c(OCCCNC(=O)CCCC(=O)NCCCOCCOCCOCCCNC(=O)CCCC[C@@H]3SC[C@@H]4NC(=O)N[C@@H]43)cc2C)ncc1Cl [Compound I-299, N^1-(3-(4-((4-((2-acrylamidophenyl)amino)-5-chloropyrimidin-2-yl)amino)-2-carbamoyl-5-methylphenoxy)propyl)-N^5-(15-oxo-19-((3aS,4S,6aR)-2-oxohexahydro-1H-thieno[3,4-d]imidazol-4-yl)-4,7,10-trioxa-14-azanonadecyl)glutaramide] | E (provided a mass modification of ≧70%)
7 | C=CC(=O)Nc1ccccc1Nc1nc(NC2CCN(C(=O)CCCC(=O)NCCCOCCOCCOCCCNC(=O)CCCC[C@@H]3SC[C@@H]4NC(=O)N[C@@H]43)CC2)ncc1Cl [Compound I-300, 5-(4-((4-((2-acrylamidophenyl)amino)-5-chloropyrimidin-2-yl)amino)piperidin-1-yl)-5-oxo-N-(15-oxo-19-((3aS,4S,6aR)-2-oxohexahydro-1H-thieno[3,4-d]imidazol-4-yl)-4,7,10-trioxa-14-azanonadecyl)pentanamide] | E (provided a mass modification of ≧70%)
8 | C=CC(=O)Nc1ccccc1Nc1nc(Nc2ccc(NC(=O)CCCC(=O)NCCCOCCOCCOCCCNC(=O)CCCC[C@H]3SC[C@H]4NC(=O)N[C@H]43)cc2OC)ncc1Cl [Compound I-301, N^1-(4-((4-((2-acrylamidophenyl)amino)-5-chloropyrimidin-2-yl)amino)-3-methoxyphenyl)-N^5-(15-oxo-19-((3aR,4R,6aS)-2-oxohexahydro-1H-thieno[3,4-d]imidazol-4-yl)-4,7,10-trioxa-14-azanonadecyl)glutaramide] | E (provided a mass modification of ≧70%)
9 | C=CC(=O)Nc1ccccc1Nc1nc(Nc2cc(NC(=O)CCCC(=O)NCCCOCCOCCOCCCNC(=O)CCCC[C@@H]3SC[C@@H]4NC(=O)N[C@@H]43)cc(C(N)=O)c2)ncc1Cl [Compound I-304, N^1-(3-((4-((2-acrylamidophenyl)amino)-5-chloropyrimidin-2-yl)amino)-5-carbamoylphenyl)-N-(15-oxo-19-((3aS,4S,6aR)-2-oxohexahydro-1H-thieno[3,4-d]imidazol-4-yl)-4,7,10-trioxa-14-azanonadecyl)glutaramide] | G (proived a mass modification ≦30%)
10 | C=CC(=O)Nc1ccccc1Nc1nc(Nc2ccc(N3CCN(C(=O)CCCC(=O)NCCCOCCOCCOCCCNC(=O)CCCC[C@@H]4SC[C@@H]5NC(=O)N[C@@H]54)CC3)cc2OC(F)F)ncc1Cl [Compound I-306, 5-(4-(4-((4-((2-acrylamidophenyl)amino)-5-chloropyrimidin-2-yl)amino)-3-(difluoromethoxy)phenyl)piperazin-1-yl)-5-oxo-N-(15-oxo-19-((3aS,4S,6aR)-2-oxohexahydro-1H-thieno[3,4-d]imidazol-4-yl)-4,7,10-trioxa-14-azanonadecyl)pentanamide] | E (provided a mass modification of ≧70%)
11 | CC(=O)N1CCC[C@H](Nc2ncc(C(F)(F)F)c(N[C@H]3[C@@H](C(N)=O)[C@@H]4C=C[C@H]3C4)n2)C1 [Compound I-308, (1S,2S,3R,4R)-3-((2-(((S)-1-acetylpiperidin-3-yl)amino)-5-(trifluoromethyl)pyrimidin-4-yl)amino)bicyclo[2.2.1]hept-5-ene-2-carboxamide] | G (proived a mass modification ≦30%)
12 | COc1cc(N2CCOCC2)ccc1Nc1ncc(C(C)=O)c(Nc2ccccc2N)n1 [Compound I-313, 1-(4-((2-aminophenyl)amino)-2-((2-methoxy-4-morpholinophenyl)amino)pyrimidin-5-yl)ethanone] | G (proived a mass modification ≦30%)
13 | C=CC(=O)Nc1ccccc1Nc1nc(Nc2ccc(N(CC)C(C)=O)cc2C(F)(F)F)ncc1Cl [Compound I-320] | F (provided a mass modification of 31-69%)

Results, then the compound that gave them:

Row | ERK1 Mass Mod (%) | SMILES
14 | G (proived a mass modification ≦30%) | C=CC(=O)Nc1ccccc1Nc1nc(Nc2ccc(N3CCOCC3)cc2OC)ncc1/C(C)=N/OC [Compound I-274, (E)-N-(2-((2-((2-methoxy-4-morpholinophenyl)amino)-5-(1-(methoxyimino)ethyl)pyrimidin-4-yl)amino)phenyl)acrylamide]
15 | G (proived a mass modification ≦30%) | C=CC(=O)Nc1ccccc1Nc1nc(Nc2ccc(N3CCOCC3)cc2OC)ncc1/C(C)=N/O [Compound I-275, (E)-N-(2-((5-(1-(hydroxyimino)ethyl)-2-((2-methoxy-4-morpholinophenyl)amino)pyrimidin-4-yl)amino)phenyl)acrylamide]
16 | E (provided a mass modification of ≧70%) | C=CC(=O)Nc1ccccc1Nc1nc(Nc2cc(OC)nc(N3CCCCC3)c2)ncc1C(F)(F)F [Compound I-282, N-(2-((2-((2-Methoxy-6-(piperidin-1-yl)pyridin-4-yl)amino)-5-(trifluoromethyl)pyrimidin-4-yl)amino)phenyl)acrylamide]
17 | E (provided a mass modification of ≧70%) | C=CC(=O)Nc1ccccc1Nc1nc(Nc2cc(F)ccc2C)ncc1C(F)(F)F [Compound I-285, N-(2-((2-((5-Fluoro-2-methylphenyl)amino)-5-(trifluoromethyl)pyrimidin-4-yl)amino)phenyl)acrylamide]
18 | E (provided a mass modification of ≧70%) | C=CC(=O)Nc1ccccc1Nc1nc(Nc2ccnc(F)c2)ncc1C(F)(F)F [Compound I-287, N-(2-((2-((2-Fluoropyridin-4-yl)amino)-5-(trifluoromethyl)pyrimidin-4-yl)amino)phenyl)acrylamide]
19 | E (provided a mass modification of ≧70%) | C=CC(=O)Nc1cc(C)ccc1Nc1nc(Nc2ccnc(F)c2)ncc1C(F)(F)F [Compound I-288, N-(2-((2-((2-Fluoropyridin-4-yl)amino)-5-(trifluoromethyl)pyrimidin-4-yl)amino)-5-methylphenyl)acrylamide]
20 | E (provided a mass modification of ≧70%) | C=CC(=O)Nc1ccccc1Nc1nc(Nc2ccnnc2)ncc1C(F)(F)F [Compound I-293, N-(2-((2-(Pyridazin-4-ylamino)-5-(trifluoromethyl)pyrimidin-4-yl)amino)phenyl) acrylamide]
21 | E (provided a mass modification of ≧70%) | C=CC(=O)Nc1cc(C)ccc1Nc1nc(Nc2cc(C)nc(OC)c2)ncc1C(F)(F)F [Compound I-295, N-(2-((2-((2-methoxy-6-methylpyridin-4-yl)amino)-5-(trifluoromethyl)pyrimidin-4-yl)amino)-5-methylphenyl)acrylamide]
22 | E (provided a mass modification of ≧70%) | C=CC(=O)Nc1ccccc1Nc1nc(Nc2cc(C(N)=O)c(OCCCNC(=O)C#CC)cc2C)ncc1Cl [Compound I-305, 5-((4-((2-acrylamidophenyl)amino)-5-chloropyrimidin-2-yl)amino)-2-(3-(but-2-ynamido)propoxy)-4-methylbenzamide]
23 | E (provided a mass modification of ≧70%) | C=CC(=O)Nc1cc(C(F)(F)F)ccc1Nc1nc(Nc2cc(OC)ncc2C)ncc1C(F)(F)F [Compound I-323, N-(2-((2-((2-methoxy-5-methylpyridin-4-yl)amino)-5-(trifluoromethyl)pyrimidin-4-yl)amino)-5-(trifluoromethyl)phenyl)acrylamide]
24 | E (provided a mass modification of ≧70%) | C=CC(=O)Nc1cc(C)ccc1Nc1nc(Nc2cc(OC)nc(N3CCN(C)CC3)c2)ncc1C(F)(F)F [Compound I-325, N-(2-((2-((2-methoxy-6-(4-methylpiperazin-1-yl)pyridin-4-yl)amino)-5-(trifluoromethyl)pyrimidin-4-yl)amino)-5-methylphenyl)acrylamide]
25 | E (provided a mass modification of ≧70%) | C=CS(=O)(=O)Nc1cc(C)ccc1Nc1nc(Nc2cc(OC)ncc2C)ncc1C(F)(F)F [Compound I-333, N-(2-((2-((2-methoxy-5-methylpyridin-4-yl)amino)-5-(trifluoromethyl)pyrimidin-4-yl)amino)-5-methylphenyl)ethenesulfonamide]
26 | E (provided a mass modification of ≧70%) | C=CC(=O)Nc1cc(C)ccc1Nc1nc(Nc2cc(OC)nc(N(C)CCOC)c2)ncc1C(F)(F)F [Compound I-336, N-(2-((2-((2-methoxy-6-((2-methoxyethyl)(methyl)amino)pyridin-4-yl)amino)-5-(trifluoromethyl)pyrimidin-4-yl)amino)-5-methylphenyl)acrylamide]
